Entries after “also recorded” stand apart in the source; their conditions may differ.
Tested on: YB5 cells
Test: anchorage-dependent clonogenic assay
Type: cell-based, human
Conditions: 2 weeks drug-free
Method: Two hundred YB5 cells were seeded per well in 6-well plates. On the following day, YB5 cells were treated with toyocamycin for 24 h or 72 h. Decitabine (10–50 nM for 72 h) was used as a positive control for the loss of clonogenic potential. Drugs and media were replaced each day. After treatment, media was removed. YB5 cells were grown in drug-free media for 2 weeks to allow visible colony formation prior to colony staining (0.5% methylene blue in 50% methanol). YB5 colonies were counted manually.

## N#Cc1cn([C@@H]2O[C@H](CO)[C@@H](O)[C@H]2O)c2ncnc(N)c12 [toyocamycin, 7-Deaza-7-cyanoadenosine]
10 nM, 24 h treatment
  colony formation: completely abrogated colony formation; also recorded: full eradication of the clonogenic potential
10–50 nM, 72 h treatment
  colony formation: fully abolished colony formation

From paper PMC9324262, “Selective CDK9 Inhibition by Natural Compound Toyocamycin in Cancer Cells” (Cancers, 2022)
